From PubChem BioAssay (NCI)
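Step 1: Grow cells in 96-well plates. Step 2: Expose to compound for 48 hours at 5 concentrations. Step 3: Interpolate endpoints linearly; if unreached, use highest concentration. The concentration for full growth arrest is given as TGI.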

Experiments:
Assay in all cases: NCI-60 cell line screen, 48 h
RXF 393 renal = tested on: RXF 393 renal
SF-539 CNS = tested on: SF-539 CNS
DMS 114 small cell lung = tested on: DMS 114 small cell lung
IGROV1 ovarian = tested on: IGROV1 ovarian
SF-295 CNS = tested on: SF-295 CNS
KM12 colon = tested on: KM12 colon
KM20L2 colon = tested on: KM20L2 colon
OVCAR-3 ovarian = tested on: OVCAR-3 ovarian
SN12C renal = tested on: SN12C renal
COLO 205 colon = tested on: COLO 205 colon
SNB-19 CNS = tested on: SNB-19 CNS
HCC-2998 colon = tested on: HCC-2998 colon
CAKI-1 renal = tested on: CAKI-1 renal
M19-MEL melanoma = tested on: M19-MEL melanoma
HT29 colon = tested on: HT29 colon
OVCAR-8 ovarian = tested on: OVCAR-8 ovarian
UO-31 renal = tested on: UO-31 renal
786-0 renal = tested on: 786-0 renal
M14 melanoma = tested on: M14 melanoma
HCT-15 colon = tested on: HCT-15 colon
LXFL 529 NSCLC = tested on: LXFL 529 NSCLC
EKVX NSCLC = tested on: EKVX NSCLC
SK-MEL-2 melanoma = tested on: SK-MEL-2 melanoma
UACC-257 melanoma = tested on: UACC-257 melanoma
NCI-H460 lung = tested on: NCI-H460 lung
MOLT-4 leukemia = tested on: MOLT-4 leukemia
DMS 273 small cell lung = tested on: DMS 273 small cell lung
MALME-3M melanoma = tested on: MALME-3M melanoma
NCI-H23 lung = tested on: NCI-H23 lung
OVCAR-4 ovarian = tested on: OVCAR-4 ovarian
HOP-92 NSCLC = tested on: HOP-92 NSCLC
A549 NSCLC = tested on: A549 NSCLC
SW-620 colon = tested on: SW-620 colon
HL-60(TB) leukemia = tested on: HL-60(TB) leukemia
RPMI-8226 leukemia = tested on: RPMI-8226 leukemia
DLD-1 colon = tested on: DLD-1 colon
SK-MEL-5 melanoma = tested on: SK-MEL-5 melanoma
UACC-62 melanoma = tested on: UACC-62 melanoma
HCT-116 colon = tested on: HCT-116 colon
SK-MEL-28 melanoma = tested on: SK-MEL-28 melanoma
LOX IMVI melanoma = tested on: LOX IMVI melanoma
A498 renal = tested on: A498 renal
OVCAR-5 ovarian = tested on: OVCAR-5 ovarian
RXF-631 renal = tested on: RXF-631 renal
CCRF-CEM leukemia = tested on: CCRF-CEM leukemia
ACHN renal = tested on: ACHN renal
NCI-H226 lung = tested on: NCI-H226 lung
XF 498 CNS = tested on: XF 498 CNS
SF-268 CNS = tested on: SF-268 CNS
K-562 leukemia = tested on: K-562 leukemia
NCI-H522 lung = tested on: NCI-H522 lung
SK-OV-3 ovarian = tested on: SK-OV-3 ovarian
SNB-75 CNS = tested on: SNB-75 CNS
SR leukemia = tested on: SR leukemia
SNB-78 CNS = tested on: SNB-78 CNS
TK-10 renal = tested on: TK-10 renal
U251 CNS = tested on: U251 CNS
HOP-62 NSCLC = tested on: HOP-62 NSCLC

Measured: TGI

CC(=O)N(C(C)=O)c1c(N)n(C)c(=O)[nH]c1=O
not listed: NCI-H522 lung | SK-OV-3 ovarian | SNB-75 CNS | SR leukemia | SNB-78 CNS | TK-10 renal | U251 CNS | HOP-62 NSCLC
> 100 µM: all other assays above

CC(C)c1ccccc1NC(=O)CCC(=O)NN
not listed: RXF 393 renal | DMS 114 small cell lung | COLO 205 colon | HCC-2998 colon | HT29 colon | OVCAR-8 ovarian | NCI-H460 lung | OVCAR-4 ovarian | SK-MEL-5 melanoma | A498 renal | OVCAR-5 ovarian | HOP-62 NSCLC
> 100 µM: all other assays above

NC(N)=N/N=C(/CCN1CCCC1)CC(c1ccccc1)c1c(O)c2ccccc2oc1=O (centres undefined)
not listed: KM12 colon | OVCAR-8 ovarian | UO-31 renal | HCT-15 colon | NCI-H460 lung | MOLT-4 leukemia | DMS 273 small cell lung | HL-60(TB) leukemia | SK-MEL-5 melanoma | A498 renal | OVCAR-5 ovarian | CCRF-CEM leukemia | SR leukemia | SNB-78 CNS | U251 CNS
> 100 µM: all other assays above
